Data published in patent publication US7208500B2, “Thienopyridine-phenylacetamides and their derivatives useful as new anti-angiogenic agents” (Agouron Pharmaceuticals, Inc., priority 2003, dated 2007).

How the values were obtained:
[1] = target: T1, FGF-R1 intracellular kinase domain (Homo sapiens, UniProt P11362, C488A/C584S/L457V); assay: FGF-R spectrophotometric assay; format: biochemical; details: 50 nM test compound; read-out: FGF-P (% inh @ 50 nM)
T1 construct: starting from the endogenous methionine residue 456 to glutamate 766; made in house; host or cells: baculovirus vector expression system
Protocol: The intracellular kinase domain of human FGF-R1 was expressed using the baculovirus vector expression system starting from the endogenous methionine residue 456 to glutamate 766, according to the residue numbering system of Mohammadi et al., Mol. Cell. Biol., 16, 977–989 (1996). In addition, the construct also has the following 3 amino acid substitutions: L457V, C488A, and C584S.
The spectrophotometric assay was carried out as described above for VEGF-R2, except for the following changes in concentration: FGF-R=50 nM, ATP=2 mM, and poly(E4Y1)=15 mM.

[2] = target: T2, unphosphorylated VEGF-R2D50 (FLVK), cytosolic domain of human VEGF-R2 (Homo sapiens, UniProt P35968, DEL940-989/E990V); assay: VEGF-R2 coupled spectrophotometric assay (FLVK); format: biochemical
T2 construct: VEGF-R2D50 contains residues 806–939 and 990–1171; made in house; host or cells: baculovirus/insect cell system
Source text: This construct determines the ability of a test compound to inhibit tyrosine kinase activity. A construct (VEGF-R2D50) of the cytosolic domain of human vascular endothelial growth factor receptor 2 (VEGF-R2) lacking the 50 central residues of the 68 residues of the kinase insert domain was expressed in a baculovirus/insect cell system. Of the 1356 residues of full-length VEGF-R2, VEGF-R2D50 contains residues 806–939 and 990–1171, and also one point mutation (E990V) within the kinase insert domain relative to wild-type VEGF-R2. Autophosphorylation of the purified construct was performed by incubation of the enzyme at a concentration of […] in the presence of 3 mM ATP and 40 mM MgCl2 in 100 mM HEPES, pH 7.5, containing 5% glycerol and 5 mM DTT, at 4° C. for 2 h. […] See Parast et al., Biochemistry, 37, 16788–16801 (1998).
The production of ADP from ATP that accompanies phosphoryl transfer was coupled to oxidation of NADH using phosphoenolpyruvate (PEP) and a system having pyruvate kinase (PK) and lactic dehydrogenase (LDH). The oxidation of NADH was monitored by following the decrease of absorbance at 340 nm (e340=6.22 cm^−1 mM^−1) using a Beckman DU 650 spectrophotometer. Assay conditions for phosphorylated VEGF-R2D50 (indicated as FLVK-P in the tables below) were the following: 1 mM PEP; […]; 50 units of LDH/mL; 20 units of PK/mL; 5 mM DTT; 5.1 mM poly(E4Y1); 1 mM ATP; and 25 mM MgCl2 in 200 mM HEPES, pH 7.5. Assay conditions for unphosphorylated VEGF-R2D50 (indicated as FLVK in the tables) were the following: 1 mM PEP; […]; 50 units of LDH/mL; 20 units of PK/mL; 5 mM DTT; 20 mM poly(E4Y1); 3 mM ATP; and 60 mM MgCl2 and 2 mM MnCl2 in 200 mM HEPES, pH 7.5. Assays were initiated with 5 to 40 nM of enzyme. Ki values were determined by measuring enzyme activity in the presence of varying concentrations of test compounds. The percent inhibition at 50 nm (% inhibition@50 nm) was determined by linear least-squares regression analysis of absorpbance as a function of time. The binding inhibitions were fitted to equation as described by Morrison. The data were analyzed using Enzyme Kinetic and Kaleidagraph software.

[3] = system: human umbilical vein endothelial cells (HUVEC); assay: HUVEC + VEGF proliferation assay; format: cell-based; details: VEGF-stimulated proliferation, final VEGF 6 ng/mL, 72 hours, MTT
Protocol: This assay determines the ability of a test compound to inhibit the growth factor-stimulated proliferation of human umbilical vein endothelial cells (“HUVEC”). HUVEC cells (passage 3–4, Clonetics, Corp.) were thawed into EGM2 culture medium (Clonetics Corp) in T75 flasks. Fresh EGM2 medium was added to the flasks 24 hours later. Four or five days later, cells were exposed to another culture medium (F12K medium supplemented with 10% fetal bovine serum (FBS), […] endothelial cell growth supplement (ECGS), and 0.1 mg/mL heparin). Exponentially-growing HUVEC cells were used in experiments thereafter. Ten to twelve thousand HUVEC cells were plated in 96-well dishes in […] of rich, culture medium (described above). The cells were allowed to attach for 24 hours in this medium. The medium was then removed by aspiration and […] of starvation media (F12K+1% FBS) was added to each well. After 24 hours, […] of test agent dissolved in 1% DMSO in starvation medium or this vehicle alone was added into each treatment well; the final DMSO concentration was 0.1%. One hour later, […] of VEGF (30 ng/mL) in starvation media was added to all wells except those containing untreated controls; the final VEGF concentration was 6 ng/mL. Cellular proliferation was quantified 72 hours later by MTT dye reduction, at which time cells were exposed for 4 hours MTT (Promega Corp.). Dye reduction was stopped by addition of a stop solution (Promega Corp.) and absorbance at 595 nm was determined on a 96-well spectrophotometer plate reader.

T1 sequence (P11362 456-766 L457V/C488A/C584S): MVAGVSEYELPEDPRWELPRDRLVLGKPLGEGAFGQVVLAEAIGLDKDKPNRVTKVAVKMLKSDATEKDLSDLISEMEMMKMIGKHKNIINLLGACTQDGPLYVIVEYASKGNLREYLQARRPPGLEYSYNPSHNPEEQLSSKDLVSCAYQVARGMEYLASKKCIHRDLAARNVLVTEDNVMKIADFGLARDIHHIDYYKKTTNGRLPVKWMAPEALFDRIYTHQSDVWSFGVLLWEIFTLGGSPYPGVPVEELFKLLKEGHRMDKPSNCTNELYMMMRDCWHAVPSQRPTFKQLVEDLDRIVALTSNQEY
T2 sequence (P35968 with tags, fused parts or gaps DEL940-989/E990V limits assumed): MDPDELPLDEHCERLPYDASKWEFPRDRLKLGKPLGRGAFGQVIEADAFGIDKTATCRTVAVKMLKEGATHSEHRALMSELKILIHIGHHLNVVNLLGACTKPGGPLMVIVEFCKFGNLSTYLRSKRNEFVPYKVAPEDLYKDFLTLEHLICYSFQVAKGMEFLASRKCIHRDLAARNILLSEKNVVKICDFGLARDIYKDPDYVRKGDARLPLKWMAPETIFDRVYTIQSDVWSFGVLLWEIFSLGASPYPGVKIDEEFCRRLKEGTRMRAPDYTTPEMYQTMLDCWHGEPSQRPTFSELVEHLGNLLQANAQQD

Row | SMILES | inhibition at 0.05 µM [1] [%] | Ki [2] [nM] | IC50 [3] [nM]
1 | O=C(Cc1ccc(Oc2ccnc3cc(C(=O)N4CC[C@@H](O)C4)sc23)cc1)Nc1cc2ccccc2cn1 [Example 17, 2-{4-[2-((R)-3-Hydroxy-pyrrolidine-1-carbonyl)-thieno[3,2-b]pyridin-7-yloxy]-phenyl}-N-isoquinolin-3-yl-acetamide] | > 10 | < 1 | > 10
2 | O=C(Cc1ccc(Oc2ccnc3cc(C(=O)N4CC[C@@H](O)C4)sc23)cc1)Nc1ccc(C(F)(F)F)cn1 [Example 18, 2-{4-[2-((R)-3-Hydroxy-pyrrolidine-1-carbonyl)-thieno[3,2-b]pyridin-7-yloxy]-phenyl}-N-(5-trifluoromethyl-pyridin-2-yl)-acetamide] | 5 to 10 | < 1 | > 10
3 | Cc1ccc(NC(=O)Cc2ccc(Oc3ccnc4cc(C(=O)N5CCC5)sc34)cc2)nc1 [Example 24, 2-{4-[2-(Azetidine-1-carbonyl)-thieno[3,2-b]pyridin-7-yloxy]-phenyl}-N-(5-methyl-pyridin-2-yl)-acetamide] | 0 to 5 | < 1 | 1 to 10
4 | Cc1cccc(NC(=O)Cc2ccc(Oc3ccnc4cc(C(=O)N5CCC5)sc34)cc2)n1 [Example 25, 2-{4-[2-(Azetidine-1-carbonyl)-thieno[3,2-b]pyridin-7-yloxy]-phenyl}-N-(6-methyl-pyridin-2-yl)-acetamide] | 5 to 10 | < 1 | 1 to 10
5 | O=C(Cc1ccc(Oc2ccnc3cc(C(=O)N4CCC4)sc23)cc1)Nc1ccc(C(F)(F)F)cn1 [Example 27, 2-{4-[2-(Azetidine-1-carbonyl)-thieno[3,2-b]pyridin-7-yloxy]-phenyl}-N-(5-trifluoromethyl-pyridin-2-yl)-acetamide] | 0 to 5 | < 1 | 1 to 10
6 | O=C(Cc1ccc(Oc2ccnc3cc(C(=O)N4CCC4)sc23)cc1)Nc1ccc(Br)cn1 [Example 30, 2-{4-[2-(Azetidine-1-carbonyl)-thieno[3,2-b]pyridin-7-yloxy]-phenyl}-N-(5-bromo-pyridin-2-yl)-acetamide] | 0 to 5 | < 1 | 1 to 10
7 | O=C(Cc1ccc(Oc2ccnc3cc(C(=O)N4CCC4)sc23)cc1)Nc1cc2ccccc2cn1 [Example 31, 2-{4-[2-(Azetidine-1-carbonyl)-thieno[3,2-b]pyridin-7-yloxy]-phenyl}-N-isoquinolin-3-yl-acetamide] | 0 to 5 | < 1 | < 1
8 | O=C(Cc1ccc(Oc2ccnc3cc(C(=O)N4CCC4)sc23)cc1)Nc1ccc2ccccc2n1 [Example 33, 2-{4-[2-(Azetidine-1-carbonyl)-thieno[3,2-b]pyridin-7-yloxy]-phenyl}-N-quinolin-2-yl-acetamide] | 0 to 5 | < 1 | > 10
9 | Cc1cc(NC(=O)Cc2ccc(Oc3ccnc4cc(C(=O)N5CCC5)sc34)cc2)no1 [Example 41, 2-{4-[2-(Azetidine-1-carbonyl)-thieno[3,2-b]pyridin-7-yloxy]-phenyl}-N-(5-methyl-isoxazol-3-yl)-acetamide] | 5 to 10 | 1 to 10 | 1 to 10

Continued, in another order:

Row | inhibition at 0.05 µM [1] [%] | Ki [2] [nM] | SMILES | IC50 [3] [nM]
10 | 5 to 10 | < 1 | Cc1cc(C)nc(NC(=O)Cc2ccc(Oc3ccnc4cc(C(=O)N5CC[C@@H](O)C5)sc34)cc2)c1 [Example 14, N-(4,6-Dimethyl-pyridin-2-yl)-2-{4-[2-((R)-3-hydroxy-pyrrolidine-1-carbonyl)-thieno[3,2-b]pyridin-7-yloxy]-phenyl}-acetamide] | 1 to 10
11 | 0 to 5 | < 1 | Cc1ccnc(NC(=O)Cc2ccc(Oc3ccnc4cc(C(=O)N5CC[C@@H](O)C5)sc34)cc2)c1 [Example 15, 2-{4-[2-((R)-3-Hydroxy-pyrrolidine-1-carbonyl)-thieno[3,2-b]pyridin-7-yloxy]-phenyl}-N-(4-methyl-pyridin-2-yl)-acetamide] | < 1
12 | 0 to 5 | 1 to 10 | O=C(Cc1ccc(Oc2ccnc3cc(C(=O)N4CC[C@@H](O)C4)sc23)cc1)Nc1ccc(Cl)cn1 [Example 16, N-(5-Chloro-pyridin-2-yl)-2-{4-[2-((R)-3-hydroxy-pyrrolidine-1-carbonyl)-thieno[3,2-b]pyridin-7-yloxy]-phenyl}-acetamide] | > 10
13 | 0 to 5 | 1 to 10 | O=C(Cc1ccc(Oc2ccnc3cc(C(=O)N4CC[C@@H](O)C4)sc23)cc1)Nc1ccccn1 [Example 19, 2-{4-[2-((R)-3-Hydroxy-pyrrolidine-1-carbonyl)-thieno[3,2-b]pyridin-7-yloxy]-phenyl}-N-pyridin-2-yl-acetamide] | > 10
14 | 0 to 5 | 1 to 10 | O=C(Cc1ccc(Oc2ccnc3cc(C(=O)N4CC[C@@H](O)C4)sc23)cc1)Nc1ccccc1 [Example 20, 2-{4-[2-((R)-3-Hydroxy-pyrrolidine-1-carbonyl)-thieno[3,2-b]pyridin-7-yloxy]-phenyl}-N-phenyl-acetamide] | 1 to 10
15 | 0 to 5 | < 1 | Cc1ccnc(NC(=O)Cc2ccc(Oc3ccnc4cc(C(=O)N5CCC5)sc34)cc2)c1 [Example 23, 2-{4-[2-(Azetidine-1-carbonyl)-thieno[3,2-b]pyridin-7-yloxy]-phenyl}-N-(4-methyl-pyridin-2-yl)-acetamide] | < 1
16 | 5 to 10 | < 1 | O=C(Cc1ccc(Oc2ccnc3cc(C(=O)N4CCC4)sc23)cc1)Nc1ccc(Cl)cn1 [Example 28, 2-{4-[2-(Azetidine-1-carbonyl)-thieno[3,2-b]pyridin-7-yloxy]-phenyl}-N-(5-chloro-pyridin-2-yl)-acetamide] | < 1
17 | 0 to 5 | 1 to 10 | O=C(Cc1ccc(Oc2ccnc3cc(C(=O)N4CCC4)sc23)cc1)Nc1ccc(F)cn1 [Example 29, 2-{4-[2-(Azetidine-1-carbonyl)-thieno[3,2-b]pyridin-7-yloxy]-phenyl}-N-(5-fluoro-pyridin-2-yl)-acetamide] | > 10
18 | 0 to 5 | 1 to 10 | O=C(Cc1ccc(Oc2ccnc3cc(C(=O)N4CCC4)sc23)cc1)Nc1nccc2ccccc12 [Example 32, 2-{4-[2-(Azetidine-1-carbonyl)-thieno[3,2-b]pyridin-7-yloxy]-phenyl}-N-isoquinolin-1-yl-acetamide] | > 10
